Experimental data: article PMC5572761 (Journal of medicinal chemistry, 2017)
Where a SMILES comes first, the peptide text is derived from it. Bridges are numbered along the chain shown (N, C = ends).

Legend:
rat α6/α3β4 nAChR = rat α6/α3β4 nAChR (Rattus norvegicus, UniProt P04757+P12392+P43143); assay type: cell-based
rat α3β4 nAChR = rat α3β4 nAChR (Rattus norvegicus, UniProt P04757+P12392); assay type: cell-based
Sequence of rat α3β4 nAChR (P04757 26-499 limits assumed): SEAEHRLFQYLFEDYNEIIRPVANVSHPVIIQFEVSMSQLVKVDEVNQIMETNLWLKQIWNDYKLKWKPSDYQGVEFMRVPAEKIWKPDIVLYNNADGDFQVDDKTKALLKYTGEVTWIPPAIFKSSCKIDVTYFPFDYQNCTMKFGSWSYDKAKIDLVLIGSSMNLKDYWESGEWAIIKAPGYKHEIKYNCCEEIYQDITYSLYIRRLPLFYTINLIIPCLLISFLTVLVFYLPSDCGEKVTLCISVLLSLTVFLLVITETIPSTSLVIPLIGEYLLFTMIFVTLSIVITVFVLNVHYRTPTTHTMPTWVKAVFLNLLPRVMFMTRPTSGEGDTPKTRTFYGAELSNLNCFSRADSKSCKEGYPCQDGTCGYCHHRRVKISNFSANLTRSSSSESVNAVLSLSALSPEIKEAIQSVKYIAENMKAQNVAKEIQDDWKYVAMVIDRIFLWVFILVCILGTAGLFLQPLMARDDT
Sequence of rat α3β4 nAChR (P12392 21-495 limits assumed): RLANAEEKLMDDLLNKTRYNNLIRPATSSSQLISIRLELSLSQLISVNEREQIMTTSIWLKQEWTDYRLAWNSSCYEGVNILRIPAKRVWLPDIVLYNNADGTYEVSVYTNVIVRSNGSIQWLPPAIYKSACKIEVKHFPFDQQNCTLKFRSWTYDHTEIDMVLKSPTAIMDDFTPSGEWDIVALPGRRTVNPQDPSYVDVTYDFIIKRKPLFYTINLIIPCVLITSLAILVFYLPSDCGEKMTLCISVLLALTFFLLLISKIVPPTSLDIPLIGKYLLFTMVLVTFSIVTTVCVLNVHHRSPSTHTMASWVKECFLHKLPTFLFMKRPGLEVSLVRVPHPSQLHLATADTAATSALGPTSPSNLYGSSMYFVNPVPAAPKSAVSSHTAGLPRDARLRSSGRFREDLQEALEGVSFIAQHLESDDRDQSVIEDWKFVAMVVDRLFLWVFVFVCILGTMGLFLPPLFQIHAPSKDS

Sequence of rat α6/α3β4 nAChR (P04757 whole entry, looked up): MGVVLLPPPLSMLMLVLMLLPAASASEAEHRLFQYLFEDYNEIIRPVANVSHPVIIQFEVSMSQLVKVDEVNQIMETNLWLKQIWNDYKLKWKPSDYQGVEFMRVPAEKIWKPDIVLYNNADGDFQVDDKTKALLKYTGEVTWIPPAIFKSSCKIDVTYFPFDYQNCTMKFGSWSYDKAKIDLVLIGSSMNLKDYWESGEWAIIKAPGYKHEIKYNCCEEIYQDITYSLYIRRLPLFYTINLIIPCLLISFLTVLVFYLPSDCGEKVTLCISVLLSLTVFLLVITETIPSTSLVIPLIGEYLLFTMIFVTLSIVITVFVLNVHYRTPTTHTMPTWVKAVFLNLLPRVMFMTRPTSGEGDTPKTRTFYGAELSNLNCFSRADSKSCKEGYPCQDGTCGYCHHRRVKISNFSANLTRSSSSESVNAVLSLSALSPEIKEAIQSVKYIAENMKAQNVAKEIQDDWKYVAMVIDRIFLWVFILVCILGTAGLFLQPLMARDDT
Sequence of rat α6/α3β4 nAChR (P12392 whole entry, looked up): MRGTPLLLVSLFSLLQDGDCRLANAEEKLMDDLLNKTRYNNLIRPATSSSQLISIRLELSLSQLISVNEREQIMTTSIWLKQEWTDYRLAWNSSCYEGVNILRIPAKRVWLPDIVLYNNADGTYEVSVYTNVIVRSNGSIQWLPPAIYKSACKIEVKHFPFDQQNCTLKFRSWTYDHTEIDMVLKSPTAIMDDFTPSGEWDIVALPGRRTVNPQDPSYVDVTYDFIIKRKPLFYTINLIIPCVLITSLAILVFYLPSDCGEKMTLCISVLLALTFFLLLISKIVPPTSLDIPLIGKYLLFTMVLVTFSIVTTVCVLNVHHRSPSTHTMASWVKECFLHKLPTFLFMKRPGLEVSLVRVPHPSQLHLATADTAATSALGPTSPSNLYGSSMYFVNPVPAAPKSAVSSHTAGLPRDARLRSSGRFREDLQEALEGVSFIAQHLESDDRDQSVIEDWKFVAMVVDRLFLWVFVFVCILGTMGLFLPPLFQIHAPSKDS
Sequence of rat α6/α3β4 nAChR (P43143 whole entry, looked up): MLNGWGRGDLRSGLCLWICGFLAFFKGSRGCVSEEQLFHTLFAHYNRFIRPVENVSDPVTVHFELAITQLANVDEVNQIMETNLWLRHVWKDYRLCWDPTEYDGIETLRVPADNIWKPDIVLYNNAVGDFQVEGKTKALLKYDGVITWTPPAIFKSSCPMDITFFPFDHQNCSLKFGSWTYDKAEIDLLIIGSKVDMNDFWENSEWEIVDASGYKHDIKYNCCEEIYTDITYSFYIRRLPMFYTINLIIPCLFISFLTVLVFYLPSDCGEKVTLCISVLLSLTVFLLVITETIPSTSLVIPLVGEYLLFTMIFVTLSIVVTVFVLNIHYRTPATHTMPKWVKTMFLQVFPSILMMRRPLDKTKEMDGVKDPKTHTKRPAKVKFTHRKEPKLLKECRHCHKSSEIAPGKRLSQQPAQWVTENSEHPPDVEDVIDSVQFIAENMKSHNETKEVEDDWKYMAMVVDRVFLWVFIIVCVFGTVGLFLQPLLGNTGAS

Row | Structure (SMILES) | Hill slope n^H α6/α3β4 (rat α6/α3β4 nAChR) | α6/α3β4 IC50 ratio relative to 1 (rat α6/α3β4 nAChR) | Hill slope n^H α3β4 (rat α3β4 nAChR) | α3β4 IC50 ratio relative to 1 (rat α3β4 nAChR)
1 | CSCC[C@@H]1NC(=O)[C@H](C)NC(=O)[C@H](CO)NC(=O)[C@@H]2CSSC[C@H](NC(=O)CN)C(=O)N[C@@H](CSSC[C@@H](C(N)=O)NC(=O)[C@H](C)NC(=O)[C@@H]3CCCN3C(=O)[C@H](CO)NC1=O)C(=O)N[C@@H](CO)C(=O)N[C@@H](Cc1c[nH]cn1)C(=O)N1CCC[C@H]1C(=O)N[C@@H](C(C)C)C(=O)N2 [Peptide 11] (H-GCCSHPVCSAMSPAC-NH2; disulfide 2-8, 3-15) | 1.04 (0.77–1.32) | 1.3 | 1.05 (0.39–1.70) | 4.4
2 | CSCC[C@@H]1NC(=O)[C@H](C)NC(=O)[C@H](CO)NC(=O)[C@@H]2CSSC[C@H](NC(=O)CN)C(=O)N[C@@H](CSSC[C@@H](C(N)=O)NC(=O)[C@H](CC(=O)O)NC(=O)[C@@H]3CCCN3C(=O)[C@H](CO)NC1=O)C(=O)N[C@@H](CO)C(=O)N[C@@H](Cc1c[nH]cn1)C(=O)N1CCC[C@H]1C(=O)N[C@@H](C(C)C)C(=O)N2 [Peptide 14] (H-GCCSHPVCSAMSPDC-NH2; disulfide 2-8, 3-15) | 0.84 (0.69–0.98) | 1.2 | 1.33 (0.387–2.26) | 2.7
